In patent US11278526B2, “Compounds and methods for treating lupus” (RECEPTOS LLC, priority 2016, dated 2022):
Where two headings read alike, the source gives them in different places.

Assays:
[1] = test system: NZBWF1 mice; assay: Proteinuria scores (urine dip sticks) in NZBWF1 SLE mouse model; assay type: in vivo
Excerpt: Six groups of NZBWF1 mice (Jackson Laboratories, stock #100008) were used in the study and were acclimated to the research facility for 7 weeks prior to the start of the study. Weekly measurements of proteinuria (excess serum proteins present in the urine) and body weight began at 20 weeks of age. At 23 weeks of age, the mice were assigned to groups in a balanced manner in order to achieve average body weight and average proteinuria measurements across the groups. One “naive” group consisting of 10 mice was euthanized at the start of treatment and used as a source of tissue for analysis. Treatment began at 23 weeks of age.
The three groups dosed with compound 148 received 0.3, 1.0, and 3.0 mg/kg PO QD, respectively (20 mice per dosage). Surviving animals were sacrificed at 42 weeks. […] Disease development was evaluated as disclosed in the following examples.
High levels of proteinuria are a strong indicator of SLE. […] Proteinuria was expressed as a score from 0 to 4 (0=no protein; 1=traces of protein (<30 mg/dL); 2=30-100 mg/dL; 3=100-500 mg/dL; 4=>500 mg/dL).
As in Example 3, proteinuria was measured weekly beginning at 20 weeks using urine dip sticks (Roche Diagnostics Chemstrip 2GP, cat. no. 11895397160, per manufacturer's protocol). Proteinuria was expressed as a score from 0 to 4 (0=no protein; 1=traces of protein (<30 mg/dL); 2=30-100 mg/dL; 3=100-500 mg/dL; 4=>500 mg/dL). […] (In this and the following experiments, the number of mice per group was approximately 20, and statistics were determined by one-way ANOVA with Dunnett's comparison.)

[2] = test system: splenocytes; assay: Splenocyte counts and immunophenotyping of spleen cell subtypes; assay type: in vivo, mice; details: mouse, in vivo
Protocol: To determine the effects of compound 148 on inflammatory infiltrate in the spleen, spleens were weighed at 42 weeks. […] Splenocyte suspensions were then prepared. RBCs were lysed and splenocytes were counted.
Plasmacytoid dendritic cells (pDC) express IFNAR1 (Interferon alpha receptor 1), which amplifies the proinflammatory response to type 1 interferons (e.g., IFNα) that are associated with lupus. IFNAR activity is considered to be an important modulator of signal strength and duration in pDC and subsequent activation of T and B cells in the inflammatory response. pDC counts were measured at termination.
To determine the effects of compound 5 on inflammatory infiltrate in the spleen, spleens were weighed at 42 weeks. […] Splenocyte suspensions were prepared for all three doses. RBCs were lysed and splenocytes were counted.

[3] = test system: NZBWF1 mice; assay: Kidney weight at termination (42 weeks); assay type: in vivo
Excerpt: In SLE, inflammatory infiltrates known as Tertiary Lymphatic Tissue (TLT) accumulate in the kidney and spleen, among other tissues. As an indirect measure of disease progression, right and left kidneys were weighed (FIGS. 4A-4B) following termination at 42 weeks.
As in Example 5, left kidneys were weighed (FIG. 43) following termination at 42 weeks.

[4] = test system: NZBWF1 mice; assay: Survival in NZBWF1 SLE mouse model; assay type: in vivo; details: cyclophosphamide 50 mg/kg IP once a week (compound 5 study), Logrank p=0.0017
Protocol: As in Example 2, compound 5 was tested for efficacy in the same NZB×NZW F1 (“NZBWF1”) mouse model for SLE as compound 148. Six groups of NZBWF1 mice (Jackson Laboratories, stock #100008) were used in the study and were acclimated to the research facility for 6 weeks prior to the start of the study. Weekly measurements of proteinuria (excess serum proteins present in the urine) and body weight began at 20 weeks of age. At 22 weeks of age, the mice were assigned to groups in a balanced manner in order to achieve average body weight and average proteinuria measurements across the groups. One “naive” group consisting of 10 mice was euthanized at the start of treatment and used as a source of tissue for analysis. Treatment began at 22 weeks of age.
The five treatment groups were administered cyclophosphamide (positive control, 20 mice; introduced gradually to reduce toxicity (IP, once a week, 10 mg/kg at Weeks 22 and 23 and 50 mg/kg from Week 24 to the end of the study)), vehicle (negative control, 20 mice), or compound 5 (three groups of 20 mice), beginning at 22 weeks of age and observed over the course of 20 weeks. The three groups dosed with compound 5 received 0.3, 1.0, and 3.0 mg/kg PO QD, respectively (20 mice per dosage). Surviving animals were sacrificed at 42 weeks. […] Disease development was evaluated as disclosed in the following examples.

[5] = NZBWF1 mice, cyclophosphamide IP once a week
Protocol: Compound 148 was tested for efficacy in an art-accepted mouse model for SLE: NZB×NZW F1 (“NZBWF1”) mice develop an autoimmune disease closely resembling SLE. These mice spontaneously produce high levels of anti-dsDNA antibodies, an indicator of SLE, starting after 20 weeks of age. These mice develop hemolytic anemia, proteinuria, and progressive glomerulonephritis mediated by immune complex deposition in the glomerular basement membrane.
Six groups of NZBWF1 mice (Jackson Laboratories, stock #100008) were used in the study and were acclimated to the research facility for 7 weeks prior to the start of the study. Weekly measurements of proteinuria (excess serum proteins present in the urine) and body weight began at 20 weeks of age. At 23 weeks of age, the mice were assigned to groups in a balanced manner in order to achieve average body weight and average proteinuria measurements across the groups. […]
The three groups dosed with compound 148 received 0.3, 1.0, and 3.0 mg/kg PO QD, respectively (20 mice per dosage). […] Disease development was evaluated as disclosed in the following examples. […]
The three groups dosed with compound 5 received 0.3, 1.0, and 3.0 mg/kg PO QD, respectively (20 mice per dosage). […] Disease development was evaluated as disclosed in the following examples.

[6] = test system: NZBWF1 mice; assay: Serum blood urea nitrogen (BUN) at termination; assay type: in vivo
Protocol: Lymphocyte counts were measured from whole blood taken at 23, 31, and 36.5 weeks using flow cytometry. Cells were gated for CD4+ T cells, CD8+ T cells, and CD19+ B cells. […] Serum blood urea nitrogen (BUN) was also measured at termination to assess kidney function.
As in Example 4, serum blood urea nitrogen (BUN) was measured at termination to assess kidney function.

[7] = cyclophosphamide 50 mg/kg IP once a week (compound 5 study)
[8] = cyclophosphamide 50 mg/kg IP once a week (compound 148 study), p<0.05

O=P1(N(CCCl)CCCl)NCCCO1 (stereo not shown) [cyclophosphamide, reference compound]
Proteinuria scores relative to vehicle [1, 7]: significant improvement relative to vehicle | Proteinuria scores relative to vehicle [1, 8]: significant improvement relative to vehicle | Decrease of splenic pDC counts relative to vehicle [2]: 47% | Percent Reduction vs Vehicle: Activated CD4 + T cells [2]: 89% | Percent Reduction vs Vehicle: CD4 + T cells [2]: 77% | Percent Reduction vs Vehicle: CD8 + T cells [2]: 48% | Percent Reduction vs Vehicle: CD11b + Ly6C^hi monocytes [2]: 25% | Percent Reduction vs Vehicle: CD19 + B cells [2]: 91% | Percent Reduction vs Vehicle: Follicular B cells [2]: 93% | Percent Reduction vs Vehicle: Germinal Center B cells [2]: 99% | Percent Reduction vs Vehicle: Marginal Zone B cells [2]: 57% | Percent Reduction vs Vehicle: Marginal Zone Progenitor B cells [2]: 78% | Percent Reduction vs Vehicle: Naive CD4 + T cells [2]: 45% | Percent Reduction vs Vehicle: Plasma cells [2]: 90% | Percent Reduction vs Vehicle: Tfh cells [2]: 97% | Percent Reduction vs Vehicle: Total splenocytes [2]: 73% | Percent Reduction vs Vehicle: Treg cells [2]: 80% | Percent Reduction vs Vehicle: pDC [2]: 64% | Reduction in splenic CD4+ T cell population [2]: 84% | Reduction in splenic CD8+ T cell population [2]: 46% | Reduction in splenic CD19+ B cell population [2]: 92% | Reduction in splenic Follicular (FO) B cells [2]: 96% | Reduction in splenic Germinal Center (GC) B cell population [2]: 99% | Reduction in splenic Marginal Zone (MZ) B cell population [2]: 74% | Reduction in splenic activated CD4+ T cell population [2]: 93% | Reduction in splenic naïve CD4+ T cells [2]: 47% | Reduction in splenic plasma cell population [2]: 18% | Left kidney weight relative to vehicle [3, 7]: significantly reduced kidney weight relative to vehicle | Kidney weight relative to vehicle [3, 8]: significantly reduced kidney weight relative to vehicle | Survival compared to vehicle [4]: improved survival compared to vehicle treated animals | Body weight ([5]; 50 mg/kg from week 24 (compound 5 study)): increased body weights | Body weight ([5]; 50 mg/kg from week 25 (compound 148 study)): increased body weights | Serum BUN at termination vs vehicle [6, 7]: significant reduction in serum BUN | Serum BUN at termination vs vehicle [6, 8]: significant reduction in serum BUN
